The record followed here is ChEMBL document CHEMBL5052840, “Pharmaceutical compounds and therapeutic methods” (2020).

Data set [1] is described as follows: Plasma concentration in male C57BL/6 mouse at 2 mg/kg, iv administered as single dose measured at 0.08 hrs measured by LC/MS-MS analysis. The class given is ADME, organism-based.
The nature of data set [2]: Plasma concentration in male C57BL/6 mouse at 2 mg/kg, iv administered as single dose measured at 0.35 hrs measured by LC/MS-MS analysis. The class given is ADME, organism-based.
Data set [3] is described as follows: Plasma concentration in male C57BL/6 mouse at 2 mg/kg, iv administered as single dose measured at 1 hr measured by LC/MS-MS analysis. The class given is ADME, organism-based.
Data set [4] is described as follows: Plasma concentration in male C57BL/6 mouse at 10 mg/kg, ip administered as single dose measured at 0.08 hrs measured by LC/MS-MS analysis. Format: ADME, organism-based.
Data set [5] can be described thus: Plasma concentration in male C57BL/6 mouse at 10 mg/kg, ip administered as single dose measured at 0.35 hrs measured by LC/MS-MS analysis. Format: ADME, organism-based.
Data set [6] can be described thus: Plasma concentration in male C57BL/6 mouse at 10 mg/kg, ip administered as single dose measured at 1 hr measured by LC/MS-MS analysis. Format: ADME, organism-based.
Data set [7] in a line: Plasma concentration in male C57BL/6 mouse at 10 mg/kg, ip administered as single dose measured at 3 hrs measured by LC/MS-MS analysis. The class given is ADME, organism-based.
The nature of data set [8]: Plasma concentration in male C57BL/6 mouse at 10 mg/kg, ip administered as single dose measured at 6 hrs measured by LC/MS-MS analysis. The class given is ADME, organism-based.
Data set [9] is described as follows: Plasma concentration in male C57BL/6 mouse at 10 mg/kg, po administered as single dose measured at 0.08 hrs measured by LC/MS-MS analysis. The class given is ADME, organism-based.
Data set [10] in a line: Plasma concentration in male C57BL/6 mouse at 10 mg/kg, po administered as single dose measured at 0.35 hrs measured by LC/MS-MS analysis. The class given is ADME, organism-based.
Data set [11] is described as follows: Plasma concentration in male C57BL/6 mouse at 10 mg/kg, po administered as single dose measured at 1 hr measured by LC/MS-MS analysis. The class given is ADME, organism-based.
A short description of data set [12]: Plasma concentration in male C57BL/6 mouse at 10 mg/kg, po administered as single dose measured at 3 hrs measured by LC/MS-MS analysis. The class given is ADME, organism-based.
Data set [13] can be described thus: Plasma concentration in male C57BL/6 mouse at 10 mg/kg, po administered as single dose measured at 6 hrs measured by LC/MS-MS analysis. Format: ADME, organism-based.
A short description of data set [14]: Brain concentration in male C57BL/6 mouse at 2 mg/kg, iv administered as single dose measured at 0.08 hrs measured by LC/MS-MS analysis. The class given is ADME, organism-based. The settings on record: read-out: Drug uptake.
Data set [15] can be described thus: Brain concentration in male C57BL/6 mouse at 2 mg/kg, iv administered as single dose measured at 0.35 hrs measured by LC/MS-MS analysis. Format: ADME, organism-based. The settings on record: read-out: Drug uptake.
Data set [16] can be described thus: Brain concentration in male C57BL/6 mouse at 2 mg/kg, iv administered as single dose measured at 1 hr measured by LC/MS-MS analysis. Format: ADME, organism-based. The settings on record: read-out: Drug uptake.
Data set [17] in a line: Brain concentration in male C57BL/6 mouse at 10 mg/kg, ip administered as single dose measured at 0.08 hrs measured by LC/MS-MS analysis. The settings on record: read-out: Drug uptake. The class given is ADME, organism-based.
Data set [18] can be described thus: Brain concentration in male C57BL/6 mouse at 10 mg/kg, ip administered as single dose measured at 0.35 hrs measured by LC/MS-MS analysis. Format: ADME, organism-based. The settings on record: read-out: Drug uptake.
A short description of data set [19]: Brain concentration in male C57BL/6 mouse at 10 mg/kg, ip administered as single dose measured at 1 hr measured by LC/MS-MS analysis. The class given is ADME, organism-based. Particulars: read-out: Drug uptake.
Data set [20] can be described thus: Brain concentration in male C57BL/6 mouse at 10 mg/kg, ip administered as single dose measured at 3 hrs measured by LC/MS-MS analysis. Format: ADME, organism-based. The settings on record: read-out: Drug uptake.
Data set [21] in a line: Brain concentration in male C57BL/6 mouse at 10 mg/kg, ip administered as single dose measured at 6 hrs measured by LC/MS-MS analysis. Particulars: read-out: Drug uptake. The class given is ADME, organism-based.
Data set [22] is described as follows: Brain concentration in male C57BL/6 mouse at 10 mg/kg, po administered as single dose measured at 0.08 hrs measured by LC/MS-MS analysis. Format: ADME, organism-based. Particulars: read-out: Drug uptake.
Data set [23] can be described thus: Brain concentration in male C57BL/6 mouse at 10 mg/kg, po administered as single dose measured at 0.35 hrs measured by LC/MS-MS analysis. Format: ADME, organism-based. The settings on record: read-out: Drug uptake.
Data set [24] can be described thus: Brain concentration in male C57BL/6 mouse at 10 mg/kg, po administered as single dose measured at 1 hr measured by LC/MS-MS analysis. Format: ADME, organism-based. Particulars: read-out: Drug uptake.
Data set [25] in a line: Brain concentration in male C57BL/6 mouse at 10 mg/kg, po administered as single dose measured at 3 hrs measured by LC/MS-MS analysis. Format: ADME, organism-based. The settings on record: read-out: Drug uptake.
The nature of data set [26]: Brain concentration in male C57BL/6 mouse at 10 mg/kg, po administered as single dose measured at 6 hrs measured by LC/MS-MS analysis. The class given is ADME, organism-based. Particulars: read-out: Drug uptake.
Data set [27] is described as follows: Cmax in male C57BL/6 mouse plasma at 2 mg/kg, iv measured by LC/MS-MS analysis. The class given is ADME, organism-based. On the set-up: route intravenous, dose 2 mg/kg.
Data set [28] in a line: Oral bioavailability in male C57BL/6 mouse plasma at 10 mg/kg measured by LC/MS-MS analysis. The class given is ADME, organism-based.
Data set [29] can be described thus: Cmax in male C57BL/6 mouse brain at 2 mg/kg, iv measured by LC/MS-MS analysis. The class given is ADME, organism-based. On the set-up: route intravenous, dose 2 mg/kg.
A short description of data set [30]: AUClast in male C57BL/6 mouse brain at 2 mg/kg, iv measured by LC/MS-MS analysis. The class given is ADME, organism-based. The settings on record: in vivo.
A short description of data set [31]: AUClast in male C57BL/6 mouse brain at 10 mg/kg, ip measured by LC/MS-MS analysis. The class given is ADME, organism-based. The settings on record: in vivo.
A short description of data set [32]: AUClast in male C57BL/6 mouse brain at 10 mg/kg, po measured by LC/MS-MS analysis. The class given is ADME, organism-based. Particulars: in vivo.
A short description of data set [33]: AUC (infinity) in male C57BL/6 mouse brain at 10 mg/kg, po measured by LC/MS-MS analysis. Particulars: in vivo. Format: ADME, organism-based. On the set-up: time infinity, route oral, dose 10 mg/kg.
For data set [34], the target named is T1, Polycomb complex protein BMI-1 (Homo sapiens) (UniProt P35226).
T1 sequence (whole entry): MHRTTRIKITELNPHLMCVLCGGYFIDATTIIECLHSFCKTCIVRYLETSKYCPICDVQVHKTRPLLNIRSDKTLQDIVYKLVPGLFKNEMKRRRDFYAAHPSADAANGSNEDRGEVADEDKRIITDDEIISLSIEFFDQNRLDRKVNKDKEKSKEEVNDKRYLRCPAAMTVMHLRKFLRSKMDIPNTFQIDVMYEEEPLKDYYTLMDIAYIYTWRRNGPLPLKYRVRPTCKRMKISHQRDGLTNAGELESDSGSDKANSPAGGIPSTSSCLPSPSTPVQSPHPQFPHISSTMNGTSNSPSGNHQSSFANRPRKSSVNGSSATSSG
Put plainly: Inhibition of BMI1 in human Glioblastoma cell 3D spheres at 7 to 10 nM assessed as reduction in BMI1 protein levels measured by Western blotting method. Format: cell-based. The settings on record: Glioblastoma cell line, dose 7-10 nM. In general terms: In western blotting, separated proteins are transferred to a membrane and probed.

The target of data set [35] is T1, Polycomb complex protein BMI-1 (Homo sapiens). In words: Inhibition of BMI1 in human Glioblastoma cell 3D spheres at 7 to 10 nM assessed as reduction in phospho-RB levels measured by Western blotting method. Particulars: Glioblastoma cell line, dose 7-10 nM. Format: cell-based.
Data set [36] has the same target. Put plainly: Inhibition of BMI1 in human Glioblastoma cell 3D spheres at 7 to 10 nM assessed as reduction in STAT1 levels measured by Western blotting method. Format: cell-based. The settings on record: Glioblastoma cell line, dose 7-10 nM.
Data set [37] in a line: Antiproliferative activity against human Glioblastoma cell after 72 hrs by MTT assay. Format: functional, cell-based. Particulars: Glioblastoma cell line. In general terms: Tetrazolium assays rely on reduction of a dye to a coloured formazan, in cell work by metabolically active cells.
Data set [38] deals with T1, Polycomb complex protein BMI-1 (Homo sapiens). Put plainly: Inhibition of BMI1 in human Glioblastoma cell 3D spheres at 7 to 10 nM assessed as reduction in BMI1 protein levels measured up to 120 hrs by Western blotting method. The class given is cell-based. Particulars: Glioblastoma cell line, dose 7-10 nM, time hrs <=120.
Data set [39] has the same target. Put plainly: Inhibition of BMI1 in human Glioblastoma cell 3D spheres at 7 to 10 nM assessed as reduction in PD-L1 protein levels measured up to 120 hrs by Western blotting method. The class given is cell-based. The settings on record: Glioblastoma cell line, dose 7-10 nM, time hrs <=120.
The target is the same in data set [40]. Put plainly: Inhibition of BMI1 in human Glioblastoma cell 3D spheres at 7 to 10 nM assessed as reduction in phospho-RB levels measured up to 120 hrs by Western blotting method. Format: cell-based. The settings on record: Glioblastoma cell line, dose 7-10 nM, time hrs <=120.

The structures appear in SMILES notation. Active and inactive are the calls of the source. No cut-off for these calls is given here.

With `Cl.[2H]C1([2H])Oc2ccc(Nc3nc(-c4c(C)nc5ccccn45)cs3)cc2O1`, the concentration at 0.08 h in [1] was determined as 256 ng/mL; in [4], 469 ng/mL; in data set [9], 207 ng/mL; in data set [14], 44.9 ng/g; in data set [17], 288 ng/g; in [22], 67.3 ng/g. Moreover, the concentration at 0.35 h amounted to 44.8 ng/mL in [2]; 458 ng/mL in [5]; 163 ng/mL in data set [10]; 180 ng/g in data set [15]; 236 ng/g in data set [18]; 53 ng/g in data set [23]. The concentration at 1 h in [3] was 9.57 ng/mL; in [6] it was 232 ng/mL; in data set [11] it was 109 ng/mL; in [16], 13.8 ng/g; in data set [19] it was 90.3 ng/g; in data set [24], 51.9 ng/g. Besides, the concentration at 3 h in [7] came out at 74.9 ng/mL; in data set [12], 63.5 ng/mL; in data set [20], 82 ng/g; in [25], 20.5 ng/g. Further, the concentration at 6 h in [8] turned out to be 43.7 ng/mL; in data set [13], 45.5 ng/mL; in [21] it was 26 ng/g; in [26] it was 10.5 ng/g. Further, the Cmax (as a rule, the peak of the concentration-time curve) in data set [27] was determined as 430 ng/mL; in data set [29] it was 44.9 ng/g. Also, the bioavailability (in general, dose-corrected exposure relative to a reference, in per cent) in data set [28] was determined as 100%. Also, the AUClast turned out to be 97.08 ng·h/g in data set [30], 360.87 ng·h/g in data set [31] and 171.84 ng·h/g in [32]. In addition, the AUC in data set [33] is 204.06 ng·h/g.

In the case of `Cc1nc2ccccn2c1-c1csc(Nc2ccc3c(c2)OCO3)n1`, the inhibition result in data set [34] (tested as the 2H-labelled form), in data set [35] (tested as the 2H-labelled form) and in data set [36] (tested as the 2H-labelled form) was “Active” in each case.

For the molecule `COc1ccc(Nc2nc(-c3c(C)nc4ccccn34)cs2)cc1`, the inhibition result in data set [34] (tested as the 2H-labelled form), in data set [35] (tested as the 2H-labelled form) and in data set [36] (tested as the 2H-labelled form) was “Active” throughout. Further, in data set [37], the IC50 (usually the point on the concentration scale where inhibition reaches its midpoint) came to 10 nM.

On to `COc1c(F)cc(Nc2nc(-c3c(C)nc4ccccn34)cs2)cc1F.Cl`, for which the inhibition result in data set [34], in data set [35], in data set [36], in [38], in data set [39] and in [40] was “Active” each time.
